# Results taken from patent US20050191344A1, “Liposome composition for delivery of therapeutic agents” (priority 2004, published 2005).
# Key:
# [1] = Zeta potential of liposomes as a function of pH; type: physicochemical; details: FIG. 2
# Excerpt: As discussed in Example 5, zeta potential measurements were obtained for the liposomes containing DSPEI and for the liposomes containing HDSG. […] This is likely indicative of a higher pKa and greater charge at physiological pH. […] The greater neutrality of DSPEI-containing liposomes is important for minimization of non-specific interactions with plasma proteins and cells under in vivo conditions and thus prolonged circulation in the blood, which is necessary for systemic drug and gene delivery, as well as delivery of gene modulators, to diseased tissues.
# With continuing reference to FIG. 2, zeta potential measurements were also determined for liposomes prepared using dimethyldioctadecylammonium bromide (DDAB) (diamonds). […] Therefore DDAB-containing liposomes retain their cationic charge at physiological pH and are more likely to participate in non-specific interactions with plasma proteins under in vivo conditions. DDAB-containing liposomes are consequently cleared rapidly from circulation and are less suitable for drug or gene delivery to diseased tissues.
# Zeta potential was measured using a ZETASIZER 2000 from Malver Instruments, Inc. (Southborough Mass.). […]
# [2] = reported values; cited from earlier work
SMILES,"pKa relative to the other lipids, inferred from zeta potential versus pH slope [1]",pKa [2]
"CCCCCCCCCCCCCCCCCC[N+](C)(C)CCCCCCCCCCCCCCCCCC.[Br-] [DDAB, dimethyldioctadecylammonium bromide, reference compound]",higher than for either HDSG or DSPEI,–
"CCCCCCCCCCCCCCCCCC(=O)OCC(COP(=O)(O)OCCNCc1c[nH]cn1)OC(=O)CCCCCCCCCCCCCCCCC (stereo not shown) [DSPEI, distearoylphosphatidylethanolamine imidazole]",lower pKa than HDSG,–
NCCc1c[nH]cn1 [histamine],–,6
c1c[nH]cn1 [imidazole],–,about 6.0
